# Patent publication US9611295B2, “Treatment of IL-17 mediated disease by blocking SEFIR-SEFIR interactions” (THE CLEVELAND CLINIC FOUNDATION, priority 2011, dated 2017)
# Legend:
# [1] = tested on: IL-25-induced pulmonary inflammation; experiment: IL-25-induced pulmonary inflammation in BALB/c mice; assay type: in vivo, mouse
# Experimental: FIG. 5 provides bar graph and staining data showing that a cell-permeable CC′ loop decoy peptide inhibits IL-17- and IL-25-induced pulmonary inflammation. Wild-type (WT) female BALB/c mice (n=4 mice per group) were pretreated with DMSO, scrambled peptide, or the CC′ loop decoy peptide for 4 hours, after which they were administered saline, IL-17, or IL-25 intranasally. Mice were sacrificed and analyzed 16 hours after injection with IL-17 or 4 days after injection with IL-25. […] All experiments were performed three times. *P<0.05.
# It has been shown that Act1 plays an essential role in IL-17- and IL-25-mediated pulmonary inflammation. Thus, the inventors examined whether the Act1 SEFIR domain CC′ loop decoy peptide ameliorated IL-17- and IL-25-induced airway inflammation in vivo. BALB/c mice were pretreated with scrambled peptide or with the Act1 SEFIR domain CC′ loop decoy peptide for 4 hours, after which we injected the mice intranasally with IL-17 or IL-25. […] Consistently, IL-17-induced lung and airway recruitment of granulocytes was reduced in mice pretreated with the CC′ loop decoy peptide compared to that in mice pretreated with the scrambled peptide (FIG. 5C). The lower grade of pulmonary inflammation in the mice treated with the CC′ loop decoy peptide correlated with the decreased IL-17-dependent expression of genes encoding MCP-1 and GM-CSF in the lung tissues (FIG. 5D). […] IL-25-induced lung and airway recruitment of granulocytes, predominantly eosinophils, as well as mucin production, as determined by Periodic acid-Schiff (PAS) staining, were reduced in mice pretreated with the CC′ loop decoy peptide compared to that in mice pretreated with the scrambled peptide (FIG. 5G). The decreased pulmonary inflammation in […] correlated with decreased expression of genes encoding the TH2-type cytokines IL-5 and IL-13 in the lungs (FIG. 5H).
# Intranasal injection of mice with IL-17 and IL-25: Wild-type BALB/c female mice were pretreated with dimethyl sulfoxide (DMSO, the solvent for peptides), scrambled peptide, or the CC′ loop decoy peptide for 4 hours, after which they underwent intranasal administration of saline, IL-17 (4 μg/mouse), or IL-25 (4 μg/mouse). For IL-25-treated mice, decoy peptides were administrated daily through intranasal injection after pretreatment. Mice were anesthetized with isoflurane and sacrificed. BAL fluid was collected 16 hours after injection with IL-17 or 4 days after injection with IL-25. A total of 0.7 ml of HL-1 medium (BioWhittaker®) was used to obtain BAL fluid through trachea with a blunt needle and a 1-ml syringe. Cytospin slide preparations were obtained with a Shandon CytoSpin III Cytocentrifuge (Shandon/Thermo Scientific). Differential leukocyte counts were obtained on cytospin slide preparations after incubation with Diff Quik Giemsa stain. Cytokines in the BAL were analyzed by MultipleX plate (Invitrogen®). H&E and PAS staining were performed on lung tissues after fixation in 10% neutral-buffered formalin and paraffin embedding to detect pulmonary inflammation and for assessment of goblet cell metaplasia and mucin accumulation in airway epithelial cells.
# [2] = tested on: IL-25-dependent signaling; experiment: IL-25-dependent signaling in MEFs by Western blotting (pIκB, pJNK, pERK, pp38 MAPK); assay type: cell-based, mouse
# Experimental: FIG. 4 provides data showing that a cell-permeable CC′ loop decoy peptide disrupts the interaction between Act1 and IL-17RA and inhibits IL-17R and IL-25R signaling. FIG. 4A provides sequences of Antennapedia homeodomain (Antp) (SEQ ID NO: 11)and decoy peptides (SEQ ID NOS 23-25 and 17, respectively, in order of appearance) with the Antp sequence underlined. FIG. 4B provides flow cytometry results based on experiments in which MEFs expressing IL-17RB were incubated for 2 or 24 hours with the indicated FITC-tagged peptides (200 μM) and were then analyzed by flow cytometry. […] The percentages of FITC-positive cells in the treated samples are shown. FIG. 4C provides Western blot results of experiments in which HeLa cells were cotransfected with plasmids encoding FLAG-tagged mAct1 and V5-tagged IL-17RA and were cultured for 24 hours, after which they were incubated for 24 hours with the indicated peptides (200 μM). IL-17RA was immunoprecipitated from the samples with antibody against the V5 tag, and samples were then subjected to Western blotting analysis with the indicated antibodies. FIG. 4D provides Western blot results of experiments in which MEFs expressing IL-17RB were incubated with the indicated peptides (200 μM) for 24 hours after which they were treated with IL-17 or IL-25 and then analyzed by Western blotting with the indicated antibodies. FIG. 4E provides bar graphs showing the results of experiments in which MEFs expressing IL-17RB were incubated with the indicated peptides (200 μM) for 24 hours, after which they were treated with IL-17 or IL-25 for 3 hours. The abundances of Cxcl1 and Il13 mRNAs were then measured by real-time RT-PCR. […]
# (§1) Decoy peptides are based on surface-exposed regions of the primary sequence of a protein to mimic a putative interaction interface. […] These decoy peptides were also tagged at their C-termini with fluorescein isothiocyanate (FITC) to enable their cell-penetrating efficiency to be evaluated by flow cytometric sanalysis. […]
# [3] = tested on: IL-17-dependent signaling; experiment: IL-17-dependent signaling in MEFs by Western blotting (pIκB, pJNK, pERK, pp38 MAPK); assay type: cell-based, mouse
# Experimental: FIG. 4 provides data showing that a cell-permeable CC′ loop decoy peptide disrupts the interaction between Act1 and IL-17RA and inhibits IL-17R and IL-25R signaling. FIG. 4A provides sequences of Antennapedia homeodomain (Antp) (SEQ ID NO: 11)and decoy peptides (SEQ ID NOS 23-25 and 17, respectively, in order of appearance) with the Antp sequence underlined. FIG. 4B provides flow cytometry results based on experiments in which MEFs expressing IL-17RB were incubated for 2 or 24 hours with the indicated FITC-tagged peptides (200 μM) and were then analyzed by flow cytometry. […] The percentages of FITC-positive cells in the treated samples are shown. […] FIG. 4D provides Western blot results of experiments in which MEFs expressing IL-17RB were incubated with the indicated peptides (200 μM) for 24 hours after which they were treated with IL-17 or IL-25 and then analyzed by Western blotting with the indicated antibodies. […] The abundances of Cxcl1 and Il13 mRNAs were then measured by real-time RT-PCR. […]
# as §1
# [4] = MEFs expressing IL-17RB, peptides 200 μM, 24 hours
sequence,measurement,setting,value
DRQIKIWFQNRRMKWKKLDEDEHGLHTKY [CC′ loop decoy peptide],dose dependence of inhibition of IL-25-induced pulmonary inflammation,[1]; data not shown,dose-dependent manner
same,IL-5 in BAL,"[1]; intranasal IL-25, 4 days",substantially attenuated
same,IL-13 in BAL,"[1]; intranasal IL-25, 4 days",substantially attenuated
same,IL-25-induced eosinophilia (eosinophils in BAL),"[1]; intranasal IL-25, 4 days, vs scrambled peptide, listed as Act1 SEFIR domain CC′ loop decoy peptide",substantially attenuated
same,IL-25-induced eosinophilia (eosinophils in BAL),"[1]; intranasal IL-25, 4 days, vs scrambled peptide, listed as CC′ decoy peptide",reduced accumulation
same,"IL-25-induced lung and airway recruitment of granulocytes, predominantly eosinophils (H&E)",[1]; vs scrambled peptide,reduced
same,mucin production (PAS staining),[1]; vs scrambled peptide,reduced
same,"IL-25-dependent signaling (pIκB, pJNK, pERK, pp38 MAPK)",[2]; [4],partly attenuated
same,dose and time dependence of inhibition of IL-25-dependent signaling and gene expression,[2]; data not shown,dose-and time-dependent manner
same,"IL-17-dependent signaling (pIκB, pJNK, pERK, pp38 MAPK)",[3]; [4],partly attenuated
same,dose and time dependence of inhibition of IL-17-dependent signaling and gene expression,[3]; data not shown,dose-and time-dependent manner
